# Assay results taken from patent publication US20140066498A1, “TRITERPENOID DERIVATIVES, BENZENOID DERIVATIVES, AND PHARMACEUTICAL COMPOSITIONS CONTAINING THE SAME” (National Cheng Kung University, priority 2010, published 2014).
# Read-outs that look alike come from different tables or passages of the source.
# What was measured:
# [1] = system: KB (human cancer cell); experiment: Cytotoxicity assay against KB cells in vitro; type: cell-based; details: NA@20 given for inactive
# [2] = system: KB-VIN (multidrug-resistant strain); experiment: Cytotoxicity assay against KB-VIN cells in vitro; type: cell-based, human
# [3] = biological target: NADPH oxidase (NOX) (Homo sapiens, UniProt P04839); type: cell-based; details: ROS production triggered with fMLP (2 μM), 1-50 μM test drug, peripheral human neutrophils; mean ± S.E.M.; read-out: IC50 (μM) in NOX fMLP-induced NOX activation in PMN
# [4] = system: Daoy (human medulloblastoma); experiment: MTT cytotoxicity assay, Daoy; type: cell-based; details: Daoy cell line
# Description: (§1) Compounds II-7-II-9, II-13, II-14, II-20, II-21, II-25-II-33, and II-36 were assayed for cytotoxic activity against Doay (human medulloblastoma), Hep2 (human laryngeal carcinoma), MCF-7 (human breast adenocarcinoma), and Hela (human cervical epitheloid carcinoma) cell lines, using a MTT assay method.
# [5] = system: Hep2 (human laryngeal carcinoma); experiment: MTT cytotoxicity assay, Hep2; type: cell-based; details: Hep2 cell line
# Description: as §1
# [6] = system: MCF-7 (human breast adenocarcinoma); experiment: MTT cytotoxicity assay, MCF-7; type: cell-based; details: MCF-7 cell line
# Description: as §1
# [7] = system: Hela (human cervical epitheloid carcinoma); experiment: MTT cytotoxicity assay, Hela; type: cell-based; details: Hela cell line
# Description: as §1
# [8] = biological target: T1, nitric oxide synthase (NOS) (Mus musculus, UniProt P29477); experiment: NOS activity: LPS-induced NO production in murine microglial cells (BV2)
# T1 sequence (P29477 1-1144): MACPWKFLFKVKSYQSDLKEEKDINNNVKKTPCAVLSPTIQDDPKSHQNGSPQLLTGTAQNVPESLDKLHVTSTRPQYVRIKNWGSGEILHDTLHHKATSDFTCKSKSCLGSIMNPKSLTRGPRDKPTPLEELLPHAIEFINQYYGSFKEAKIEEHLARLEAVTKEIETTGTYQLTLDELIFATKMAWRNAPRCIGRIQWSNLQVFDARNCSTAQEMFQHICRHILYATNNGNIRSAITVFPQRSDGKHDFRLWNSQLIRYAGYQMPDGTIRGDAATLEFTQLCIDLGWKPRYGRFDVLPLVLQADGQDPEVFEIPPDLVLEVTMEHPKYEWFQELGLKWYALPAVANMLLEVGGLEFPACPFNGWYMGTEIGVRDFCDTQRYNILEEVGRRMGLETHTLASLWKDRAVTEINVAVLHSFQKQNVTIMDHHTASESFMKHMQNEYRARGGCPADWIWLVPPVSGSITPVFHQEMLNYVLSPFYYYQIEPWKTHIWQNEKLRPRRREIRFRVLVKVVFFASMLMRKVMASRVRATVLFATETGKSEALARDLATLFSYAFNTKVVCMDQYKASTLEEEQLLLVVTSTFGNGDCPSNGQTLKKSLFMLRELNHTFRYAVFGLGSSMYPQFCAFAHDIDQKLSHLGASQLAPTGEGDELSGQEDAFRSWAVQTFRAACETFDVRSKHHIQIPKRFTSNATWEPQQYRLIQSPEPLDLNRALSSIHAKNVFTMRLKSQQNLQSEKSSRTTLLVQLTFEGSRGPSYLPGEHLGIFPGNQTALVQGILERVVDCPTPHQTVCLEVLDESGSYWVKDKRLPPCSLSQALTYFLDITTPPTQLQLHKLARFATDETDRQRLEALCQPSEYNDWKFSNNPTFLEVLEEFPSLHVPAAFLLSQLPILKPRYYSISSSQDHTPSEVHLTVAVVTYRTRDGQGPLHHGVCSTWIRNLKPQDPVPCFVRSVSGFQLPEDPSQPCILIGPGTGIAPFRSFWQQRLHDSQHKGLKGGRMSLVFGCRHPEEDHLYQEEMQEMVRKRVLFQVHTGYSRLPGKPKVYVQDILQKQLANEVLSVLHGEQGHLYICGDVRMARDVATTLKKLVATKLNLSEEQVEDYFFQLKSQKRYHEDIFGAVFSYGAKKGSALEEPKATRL
# Description: Microglial cell culture and measurements of mitric oxide (NO). The murine microglial cell line (BV2) was cultured, and the production of NO was measured by the methods as previously described (Wang, Y. H.; Wang, W. Y.; Chang, C. C.; Liou, K. T.; Sung, Y. J.; Liao, J. F.; Chen, C. F.; Chang, S.; Hou, Y. C.; Chou, Y. C.; Shen, Y. C. J. Biomed. Sci. 2006, 13, 127-141).
# [9] = read-out: IC50 (μM) in NOS, LPS-induced NO production in BV2 cells, 1-50 μM test drug, mean ± S.E.M.
compound,measurement,setting,value
"C=C(CC[C@@H](C)[C@H]1CC[C@H]2C3=C(C(=O)C[C@]12C)[C@@]1(C)CCC(=O)[C@@H](C)[C@@H]1CC3=O)C(C)C(=O)O (stereo partly drawn) [Compound I-11, zhankuic acid A]",EC50,[1],3 µM
same,EC50,[2],6.2 µM
same,IC50,[3],22.1 ± 6.7 µM
same,ED50 (μg/mL) Daoy,[4],— (ED50 > 20 μg/mL)
same,ED50 (μg/mL) Hep2,[5],16.6 µg/mL
same,ED50 (μg/mL) MCF-7,[6],— (ED50 > 20 μg/mL)
same,ED50 (μg/mL) Hela,[7],— (ED50 > 20 μg/mL)
same,IC50,[8]; [9],3.6 µM
C=C(C)C#Cc1c(C)c(OC)c(OC)c2c1OCO2 [II-2],IC50,[8]; [9],12.1 µM
eburicol [Compound I-19],EC50,[1],> 20 µM
same,EC50,[2],> 20 µM
"CC(C)[C@@H](C)/C=C/[C@@H](C)[C@H]1CC[C@@H]2[C@]1(C)CC[C@H]1[C@]23C=C[C@]2(C[C@@H](O)CC[C@]12C)OO3 [Compound I-22, ergosterol peroxide]",IC50,[8]; [9],6.3 ± 1.8 µM
"C=C(CC[C@@H](C)C1CCC2C3=C(C(=O)C[C@@]21C)[C@@]1(C)CCC(O)[C@@H](C)C1CC3=O)C(C)C(=O)OC (stereo in doubt) [Compound I-5, methyl-3α-hydroxy-7,11-dioxo-4α-methylergosta-8,24(28)-dien-26-oate]",EC50,[1]; Homo sapiens,0.45 µM
same,EC50,"[2]; Homo sapiens, KBVIN",2.7 µM
same,ED50 (μg/mL) Daoy,[4],5.2 µg/mL
same,ED50 (μg/mL) Hep2,[5],7.0 µg/mL
same,ED50 (μg/mL) MCF-7,[6],6.6 µg/mL
same,ED50 (μg/mL) Hela,[7],9.0 µg/mL
"C=C(CC[C@@H](C)[C@H]1CC[C@@]2(O)C3=C(C(=O)C[C@]12C)[C@@]1(C)CCC(=O)[C@@H](C)C1C[C@@H]3O)C(C)C(=O)O (stereo partly drawn) [Compound I-4, 7β,14α-dihydroxy-3,11-dioxo-4α-methylergosta-8,24(28)-dien-26-oic acid]",EC50,[1]; Homo sapiens,1 µM
same,EC50,"[2]; Homo sapiens, KBVIN",1.4 µM
same,melting point,,175 to 177 °C
"C=C(CC[C@@H](C)C1CCC2C3=C(C(=O)C[C@@]21C)[C@@]1(C)CCC(=O)[C@@H](C)C1CC3O)C(C)C(=O)OC (stereo in doubt) [Compound I-6, methyl-7β-hydroxy-3,11-dioxo-4α-methylergosta-8,24(28)-dien-26-oate]",EC50,[1]; Homo sapiens,2 µM
same,EC50,"[2]; Homo sapiens, KBVIN",2.9 µM
same,ED50 (μg/mL) Daoy,[4],4.4 µg/mL
same,ED50 (μg/mL) Hep2,[5],3.0 µg/mL
same,ED50 (μg/mL) MCF-7,[6],7.9 µg/mL
same,ED50 (μg/mL) Hela,[7],8.9 µg/mL
same,melting point,,100 to 101 °C
same,IC50,[8],2.5 µM
"C=C(CC[C@@H](C)[C@H]1CC[C@@H]2C3=C(C(=O)C[C@@]21C)[C@@]1(C)CCC(=O)[C@@H](C)C1CC3)C(C)C(=O)OC (stereo partly drawn) [Compound I-10, methyl-3,11-dioxo-4α-methyl-14β-ergosta-8,24(28)-dien-26-oate]",EC50 (μM) KB,[1],NA@20
same,EC50 (μM) KB-VIN,[2],NA@20
same,ED50 (μg/mL) Daoy,[4],—^a (ED50 > 20 μg/mL)
same,ED50 (μg/mL) Hep2,[5],— (ED50 > 20 μg/mL)
same,ED50 (μg/mL) MCF-7,[6],8.7 µg/mL
same,ED50 (μg/mL) Hela,[7],11.3 µg/mL
same,melting point,,100 to 102 °C
same,IC50,[8],1.6 µM
"COc1c(C)c(-c2c(C)c(OC)c3c(c2OC)OCO3)c(OC)c2c1OCO2 [II-7, 2,2′,5,5′-tetra-methoxy-3,4,3′,4′-bi-methylenedioxy-6,6′-dimethylbiphenyl]",IC50,[8]; [9],16.2 ± 1.4 µM
"C=C(CC[C@@H](C)[C@H]1CC[C@H]2C3=C(C(=O)C[C@]12C)[C@@]1(C)CC[C@@H](O)[C@](C)(O)[C@@H]1C[C@@H]3O)C(C)C(=O)O (stereo partly drawn) [Compound I-17, antcin K]",EC50 (μM) KB,[1],NA@20
same,EC50 (μM) KB-VIN,[2],NA@20
same,IC50,[3],47.2 ± 8.4 µM
"C=C(CC[C@@H](C)[C@H]1CC[C@H]2C3=C(C(=O)C[C@]12C)[C@@]1(C)CCC(=O)[C@@H](C)[C@@H]1C[C@@H]3O)[C@H](C)C(=O)O [Compound I-16, antcin C]",EC50 (μM) KB,[1],NA@20
same,EC50 (μM) KB-VIN,[2],NA@20
same,IC50,[3],22.6 ± 3.3 µM
same,IC50,[8]; [9],4.2 µM
